This series is described as follows: Saturation concentration in water. The format is physicochemical. The following applies: standard temperature and pressure stated for sodium thiosulfate. The protocol:
For example, at standard temperature and pressure, water can become saturated with sodium thiosulfate at a concentration of about 700 mg/mL. Accordingly, in some embodiments, the concentration of a solution (e.g., an aqueous solution) containing sodium thiosulfate can be about 700 mg/mL. […] Accordingly, in some embodiments, the concentration of the sodium thiosulfate is between about 400 and about 700 mg/mL (e.g., between about 500 and about 700 mg/mL). In some embodiments, the concentration of the sodium thiosulfate salt is about 100, about 200, about 300, about 400, about 500, about 600, or about 700 mg/mL. In some embodiments, the concentration can be lower than 700 mg/mL.
In some embodiments, a metabisulfite solution (e.g., sodium metabisulfite) solution in water can become saturated at about 300 mg/mL. Accordingly, in some embodiments solutions of sodium metabisulfite are used at a concentration of about 300 mg/mL, about 200 mg/mL, or about 100 mg/mL.

SMILES strings stand for the structures.

For the compound `O=S([O-])S(=O)(=O)[O-].[Na+].[Na+]` [sodium metabisulfite], the “concentration at which water becomes saturated” value is “about 300 mg/mL”.

Turning to `O.O.O.O.O.O=S([O-])([O-])=S.[Na+].[Na+]` [sodium thiosulfate, sodium thiosulfate pentahydrate], the “concentration at which water becomes saturated” value is recorded as “about 700 mg/mL”.
